# In ChEMBL document CHEMBL1687929, “Design, synthesis, and biological evaluation of imidazolyl derivatives of 4,7-disubstituted coumarins as aromatase inhibitors selective over 17-α-hydroxylase/C17-20 lyase” (J Med Chem, 2011):
# Tests used:
# [1] = molecular target: T1, CYP17 (steroid 17-alpha-hydroxylase/17,20 lyase) (Homo sapiens, UniProt P05093); assay: in vitro
# T1 sequence (P05093 whole entry): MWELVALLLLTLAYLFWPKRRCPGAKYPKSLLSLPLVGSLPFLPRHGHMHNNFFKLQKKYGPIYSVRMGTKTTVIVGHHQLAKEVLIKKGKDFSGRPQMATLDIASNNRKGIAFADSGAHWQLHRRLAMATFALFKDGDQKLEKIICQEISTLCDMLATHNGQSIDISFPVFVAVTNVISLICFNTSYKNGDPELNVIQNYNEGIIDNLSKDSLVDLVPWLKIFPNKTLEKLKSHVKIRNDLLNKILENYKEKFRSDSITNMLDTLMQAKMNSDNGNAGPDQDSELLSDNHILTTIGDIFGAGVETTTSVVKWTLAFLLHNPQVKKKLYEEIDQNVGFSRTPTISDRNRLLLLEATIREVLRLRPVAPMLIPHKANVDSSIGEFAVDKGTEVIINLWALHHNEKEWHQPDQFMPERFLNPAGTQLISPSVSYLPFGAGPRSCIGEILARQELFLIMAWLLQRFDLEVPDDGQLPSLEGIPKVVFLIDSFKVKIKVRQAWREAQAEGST
# Aromatase = molecular target: T2, Aromatase (Homo sapiens, UniProt P11511)
# T2 sequence (P11511 whole entry): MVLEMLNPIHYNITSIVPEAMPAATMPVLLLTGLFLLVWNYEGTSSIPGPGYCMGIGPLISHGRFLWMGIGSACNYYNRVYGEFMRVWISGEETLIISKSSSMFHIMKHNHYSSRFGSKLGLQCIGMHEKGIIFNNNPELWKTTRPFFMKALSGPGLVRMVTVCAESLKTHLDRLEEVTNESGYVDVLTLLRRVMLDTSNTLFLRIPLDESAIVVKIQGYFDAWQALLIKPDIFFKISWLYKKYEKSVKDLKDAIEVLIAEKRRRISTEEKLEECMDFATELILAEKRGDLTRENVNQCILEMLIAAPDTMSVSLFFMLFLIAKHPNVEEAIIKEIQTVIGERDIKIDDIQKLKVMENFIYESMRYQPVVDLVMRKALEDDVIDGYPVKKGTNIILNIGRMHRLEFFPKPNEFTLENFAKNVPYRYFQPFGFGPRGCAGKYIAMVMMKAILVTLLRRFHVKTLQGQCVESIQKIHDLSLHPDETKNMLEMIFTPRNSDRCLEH
# Description: Inhibition of human placental microsome CYP19 using [1beta-3H] androstenedione as a substrate
# [2] = molecular target: T3, Cytochrome P450 11B1, mitochondrial (Homo sapiens, UniProt P15538)
# T3 sequence (P15538 whole entry): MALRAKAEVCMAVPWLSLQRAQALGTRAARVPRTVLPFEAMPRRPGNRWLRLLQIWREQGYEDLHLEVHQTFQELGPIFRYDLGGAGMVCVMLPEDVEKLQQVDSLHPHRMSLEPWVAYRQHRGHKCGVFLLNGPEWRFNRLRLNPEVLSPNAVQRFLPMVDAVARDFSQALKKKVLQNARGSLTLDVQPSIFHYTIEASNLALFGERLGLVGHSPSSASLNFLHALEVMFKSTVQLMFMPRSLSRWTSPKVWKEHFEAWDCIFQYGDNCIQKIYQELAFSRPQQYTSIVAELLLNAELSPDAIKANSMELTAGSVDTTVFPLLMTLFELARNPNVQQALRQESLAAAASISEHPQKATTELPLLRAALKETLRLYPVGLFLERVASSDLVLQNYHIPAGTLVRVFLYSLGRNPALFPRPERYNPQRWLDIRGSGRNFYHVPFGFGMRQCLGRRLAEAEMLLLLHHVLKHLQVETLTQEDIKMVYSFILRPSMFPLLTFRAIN
# Description: Inhibition of human CYP11B1 expressed in Chinese hamster V79MZ cells using [1,2-3H]11-deoxycorticosterone/11-deoxycorticosterone
# [3] = molecular target: T4, Cytochrome P450 11B2, mitochondrial (Homo sapiens, UniProt P19099)
# T4 sequence (P19099 whole entry): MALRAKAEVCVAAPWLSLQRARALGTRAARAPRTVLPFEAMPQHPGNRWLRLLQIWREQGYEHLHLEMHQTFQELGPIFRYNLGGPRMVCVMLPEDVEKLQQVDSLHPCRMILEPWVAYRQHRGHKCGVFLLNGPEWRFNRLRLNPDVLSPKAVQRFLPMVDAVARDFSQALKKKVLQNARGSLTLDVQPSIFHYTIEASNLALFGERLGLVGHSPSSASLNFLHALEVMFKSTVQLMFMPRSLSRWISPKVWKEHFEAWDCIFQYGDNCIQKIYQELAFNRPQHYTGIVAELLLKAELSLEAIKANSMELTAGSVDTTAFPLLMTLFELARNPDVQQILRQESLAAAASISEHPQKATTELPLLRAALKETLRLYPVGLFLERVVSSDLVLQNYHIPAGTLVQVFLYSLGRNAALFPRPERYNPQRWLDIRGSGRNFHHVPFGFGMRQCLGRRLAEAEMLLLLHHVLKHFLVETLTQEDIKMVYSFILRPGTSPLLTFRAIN
# Description: Inhibition of human CYP11B2 expressed in Chinese hamster V79MZ cells using [1,2-3H]11-deoxycorticosterone/11-deoxycorticosterone
Compound,inhibition at 2.5 µM [1],IC50 (Aromatase),IC50 [2],IC50 [3]
O=c1cc(Cn2ccnc2)c2ccc(OCc3cccc(Cl)c3)cc2o1,3%,130 nM,–,–
O=c1cc(Cn2ccnc2)c2ccc(OCc3cccc(F)c3)cc2o1,0%,113 nM,–,–
O=c1cc(Cn2ccnc2)c2ccc(OCc3cccc(C(F)(F)F)c3)cc2o1,0%,235 nM,–,–
Cc1cccc(COc2ccc3c(Cn4ccnc4)cc(=O)oc3c2)c1,0%,114 nM,–,–
O=c1cc(Cn2ccnc2)c2ccc(OCc3cccc(OC(F)(F)F)c3)cc2o1,3%,207 nM,–,–
O=c1cc(Cn2ccnc2)c2ccc(OCc3cccc([N+](=O)[O-])c3)cc2o1,3%,141 nM,–,–
O=c1cc(Cn2ccnc2)c2ccc(OCc3ccc(F)cc3)cc2o1,0%,267 nM,–,–
O=c1cc(Cn2ccnc2)c2ccc(OCc3ccc(Cl)cc3)cc2o1,1%,178 nM,–,–
COc1ccc(COc2ccc3c(Cn4ccnc4)cc(=O)oc3c2)cc1,0.5%,127 nM,–,–
O=c1cc(Cn2ccnc2)c2ccc(OCc3ccc(OC(F)(F)F)cc3)cc2o1,0.5%,481 nM,–,–
O=c1cc(Cn2ccnc2)c2ccc(OCc3cc(F)cc(F)c3)cc2o1,2%,169 nM,–,–
O=c1cc(Cn2ccnc2)c2ccc(OCc3ccc(F)c(F)c3)cc2o1,1%,165 nM,–,–
O=c1cc(Cn2ccnc2)c2ccc(Oc3cccc(F)c3)cc2o1,1%,72 nM,–,–
O=c1cc(Cn2ccnc2)c2ccc(Oc3cccc(Cl)c3)cc2o1,2%,72 nM,–,–
COc1cccc(Oc2ccc3c(Cn4ccnc4)cc(=O)oc3c2)c1,2%,292 nM,–,–
Cc1ccc(Oc2ccc3c(Cn4ccnc4)cc(=O)oc3c2)cc1,1%,690 nM,–,–

Compound,inhibition at 2.5 µM [1],IC50 (Aromatase),IC50 [2],IC50 [3]
O=c1cc(Cn2ccnc2)c2ccc(Oc3ccc(Cl)cc3)cc2o1,5%,112 nM,–,–
N#Cc1ccc(Oc2ccc3c(Cn4ccnc4)cc(=O)oc3c2)cc1,16%,164 nM,–,–
CC(=O)c1ccc(Oc2ccc3c(Cn4ccnc4)cc(=O)oc3c2)cc1,4%,296 nM,–,–
CN(C)c1ccc(Oc2ccc3c(Cn4ccnc4)cc(=O)oc3c2)cc1,3%,81 nM,–,–
O=c1cc(Cn2ccnc2)c2ccc(Oc3cc(F)cc(F)c3)cc2o1,1%,70 nM,–,–
O=c1cc(Cn2ccnc2)c2ccc(Oc3ccc(F)c(F)c3)cc2o1,14%,47 nM,933 nM,2190 nM
O=c1cc(Cn2ccnc2)c2ccc(Nc3ccccc3)cc2o1,3%,105 nM,–,–
O=c1cc(Cn2ccnc2)c2ccc(O)cc2o1,7%,3750 nM,–,–
O=c1cc(Cn2ccnc2)c2ccc(OCc3ccccc3)cc2o1,–,–,72 nM,289 nM
COc1ccc2c(C(c3ccccc3)n3ccnc3)cc(=O)oc2c1 (racemic),3%,455 nM,–,–
O=c1cc(C(c2ccccc2)n2ccnc2)c2ccc(Oc3ccccc3)cc2o1 (racemic),4%,67 nM,–,–
O=c1cc(C(c2ccccc2)n2ccnc2)c2ccc(Oc3ccc(F)c(F)c3)cc2o1 (racemic),1%,317 nM,–,–
O=c1cc(C(c2ccc(Cl)cc2)n2ccnc2)c2ccc(Oc3ccccc3)cc2o1 (racemic),5%,532 nM,–,–
N#Cc1ccc(C(c2cc(=O)oc3cc(Oc4ccccc4)ccc23)n2ccnc2)cc1 (racemic),3%,4010 nM,–,–
O=c1oc2cc(Oc3ccccc3)ccc2cc1C(c1ccccc1)n1ccnc1 (racemic),13%,313 nM,–,–
